In patent publication US20240238268A1, “TREATMENTS AND METHODS FOR TREATING ALZHEIMER'S DISEASE” (Board of Supervisors of Louisiana State University and …, priority 2021, published 2024):

Columns and labels:
Assay type in all cases: in vivo, mouse
aged 3xTg-AD female mice [1] = assay: Leukocyte rolling velocity, two-photon laser scanning microscopy
Description: FIGS. 17A-17D show leukocyte rolling velocity was reduced in aged 3xTg-AD female mice.
Leukocytes velocity measurements were performed by linescans (512 lines/sec). *p<0.05 compared to aged 3xTg-AD male or C57 female evaluated by unpaired t-test. FIGS. 18A and 18B are capillary-based immunoassay and associated graphs showing PRMT4 inhibitor (TP-064) or AAV knockdown of PRMT4 reduced GFAP levels in aged 3xTg-AD female mice. Glial fibrillary acidic protein (GFAP, 55 kDa) was increased in aged 3xTg-AD female mice v. C57, which indicates neuroinflammation, but reversed with TP-064 (30 mg/kg, 7 days, IP) or PRMT4-AAV treatment in cortex, shown in FIG. 18A, and hippocampus, shown in FIG. 18B. Protein level was measured by capillary-based immunoassay and normalized to total protein. *p<0.05 as compared to C57, #p<0.05 v. 3xTg-AD evaluated by one-way ANOVA with Tukey's post-hoc analyses.

aged 3xTg-AD female mice [2] = assay: BBB leakage: 40 kDa FITC-dextran in perivascular space; settings: 30 min after FITC-dextran
Source text: FIGS. 14A-14C show BBB leakage is reduced with specific PRMT4 inhibitor (TP-064) or AAV knockdown of PRMT4 in aged 3xTg-AD female mice. Aged female 3xTg-AD mice had higher levels of 40 kDa FITC-dextran in the perivascular space v. C57 controls. This was reduced with administration of PRMT inhibitor (TP-064) or AAV knockdown of PRMT4. […] FIG. 14B is a schematic representation of one of the disclosed experimental paradigms. […] C57, #p<0.05 v. 3xTg-AD female, evaluated by one-way ANOVA with Tukey's post-hoc analysis.

VCAM-1 = VCAM-1 level, protein chip assay; settings: aged 3xTg-AD female mice; cortex and hippocampus; 30 mg/kg, 7 days, IP
Description: FIGS. 19A-19F are six graphs showing PRMT4 inhibitor (TP-064) reduced ICAM-1, VCAM-1 and enhanced E-Cadherin protein levels in aged female 3xTg-AD mice. In FIGS. 19A-19D, aged 3xTg-AD female mice v. […] Adhesion molecules were assessed via protein chip assay in the cortex and hippocampus. * p<0.05 evaluated by one-way ANOVA with Tukey's post-hoc analyses.

eNOS = eNOS protein level in brain, capillary-phoresis; settings: treated 3xTg-AD mice; control = 100%
Source text: (§1) Capillary-phoresis immunoassay via ProteinSimple®: Quantification of all protein targets was achieved using Simple Western analysis in a Jess™ apparatus per the manufacturer's protocol (ProteinSimple, Bio-techne, Minneapolis, MN). Protein was extracted from dissected tissue in an extraction buffer consisting of T-PER® Tissue Protein Extraction Reagent (Cat. No. 78510, Thermo Fischer Scientific, Waltham, MA) and Halt™ Protease Inhibitor Cocktail (Cat. No. 87785, Thermo Fischer Scientific, Waltham, MA). Following homogenization and centrifugation (10,000×g, 5 min, 4° C.), protein concentration was determined in tissue protein supernatant samples using DC Protein Assay (Cat. No. 5000112, Bio-Rad Laboratories, Hercules, California) according to manufacturer instructions. […] Antibody diluent (ProteinSimple, Bio-techne, Minneapolis, MN) was used for all antibody dilutions as follows: PRMT4 (1:50, RRID: AB_2068436), PRMT6 (1:100, Cell Signaling Technology cat. 14641), eNOS (1:200, RRID: AB_10850618), nNOS (1:100, RRID: AB_2152488), iNOS (1:100, RRID: AB_10000625), DDAH2 (1:50, RRID: AB_2640442) Antibodies were detected using HRP-conjugated secondary anti-rabbit, and -mouse. Relative protein levels were calculated by measuring the area under the peak of a chemiluminescent chromatogram and normalized to total capillary chemiluminescence for a given sample. […]

aged 3xTg-AD female mice [3] = assay: Novel Object Recognition
Description: FIGS. 20A and 20B are two graphs showing PRMT4 inhibitor (TP-064) or AAV knockdown of PRMT4 improved functional learning/memory in aged 3xTg-AD female mice. […] C57 but increased with administration of TP-064 (30 mg/kg, 7 days, IP). In FIG. 20B, in Novel Object Recognition, aged 3xTg-AD female mice had fewer number of entries in the novel zone v. C57. Treatment with TP-064 or brain-specific AAV knockdown of PRMT4 increased the number of entries. T-maze and novel object recognition test were utilized to analyze working/short-term and reference/long-term memory, respectively. * p<0.05 v. C57 via one-way ANOVA with Tukey's post-hoc analyses.

iNOS = iNOS protein level in brain, capillary-phoresis; settings: treated 3xTg-AD mice; control = 100%
Source text: as §1

nNOS = nNOS protein level in brain, capillary-phoresis; settings: treated 3xTg-AD mice; control = 100%
Source text: as §1

Question: How did the leukocyte rolling velocity (aged 3xTg-AD female mice [1]) turn out when `CNCCN1CCC(c2cc(CN(C)C(=O)c3cccc(Oc4ccccc4)c3)ccn2)CC1` [TP-064, N-Methyl-N-((2-(1-(2-(methylamino)ethyl)piperidin-4-yl)pyridin-4-yl)methyl)-3-phenoxybenzamide] was run?
Answer: increased

Question: What about the “40 kDa FITC-dextran in the perivascular space (BBB leakage)” value (aged 3xTg-AD female mice [2]) of the same molecule?
Answer: reduced

Question: And the VCAM-1 level (VCAM-1)?
Answer: decreased

Question: And the “eNOS level in cortical lysates” value (eNOS)?
Answer: 94.0%±25.6

Question: What about the “eNOS level in hippocampal lysates” value (eNOS) of the same molecule?
Answer: 69.5%±2.71

Question: What about the “number of entries in the novel zone” value (aged 3xTg-AD female mice [3]) of the same molecule?
Answer: increased

Question: What about the “iNOS level in cortical lysates” value (iNOS) of the same molecule?
Answer: 197%±24.1

Question: And the “iNOS level in hippocampal lysates” value (iNOS)?
Answer: 157%±17.5

Question: And the “nNOS level in cortical lysates” value (nNOS)?
Answer: 40.3%±2.88

Question: What about the “nNOS level in hippocampal lysates” value (nNOS) of the same molecule?
Answer: 133%±8.15
